Results reported in patent publication US12357620B2 (New York Medical College, priority 2019, dated 2025).
“Also recorded” adds a separate entry of the source.

How the values were obtained:
[1] = tested on: circulating aged neutrophils (CANs); assay: Circulating aged neutrophils (CANs) by multicolor flow cytometry in SCD patients on rifaximin; type: in vivo, human
Text: (§1) (ClinicalTrials.gov Identifier: NCT03719729). There were eight males and five females. Ten patients had HbSS, two HbSß^0thal, and one HbSC. Their median age was 29 years (range 24-56). The median number of VOC in the previous 12 months was 4.5 (range 2-13) and number of days needing intravenous opioid analgesia (IOA) was 25.5 days (range 8-198). In 12 of the 13 patients, the VOC was in the form of musculo-skeletal pain typical in distribution for the VOC that normally affected individual patients and in one patient, the VOC was predominantly in the form of recurrent priapism. Five of the patients were already taking hydroxyurea and none L-glutamine or on a transfusion program. Six patients were taking oral opioid at home for chronic pain. The study ran between November 2018 and early August 2019, covering the winter months when most of the patients reported having most frequent VOC. […] CANs were measured by multicolor flow cytometry. Neutrophils were gated by Gr-1^hi CD115^lo SSC^hi and CANs by CD62L^lo CXCR4^hi within the neutrophil population.

serum CD62L = assay: Serum CD62L, marker of neutrophil activation, in SCD patients; type: in vivo, human; conditions: SCD subjects following rifaximin treatment
serum iFABP = assay: Serum intestinal Fatty Acid Binding Protein (iFABP), intestinal injury, in SCD patients; type: in vivo, human; conditions: 12 SCD patients following rifaximin; to levels comparable to controls without SCD
serum LPS = assay: Serum lipopolysaccharides (LPS), bacterial translocation, in SCD patients; type: in vivo, human; conditions: all treated patients vs pre-treatment; to levels comparable to controls without SCD
urinary 3-IS = assay: Urinary 3-IS, total intestinal microbial load, in SCD patients; type: in vivo, human; conditions: after being started on oral rifaximin
intestinal microbiome = assay: 16S rRNA analysis of stool specimens for changes in intestinal microbiome; type: in vivo, human; conditions: during vs pre-rifaximin treatment
Text: Relative abundances were transformed with the additive log ratio (alr), prior to calculating the difference, to reduce the spurious correlations associated with compositional data. Positive differences signify increased abundance post treatment. Histograms represent the frequency of differences between during and pre-rifaximin treatment alr values, where an increase of abundance during treatment is indicated by a shift of the distribution towards the right.

patients with SCD [2] = assay: Clinical trial NCT03719729: VOC episodes and days needing intravenous opioid analgesia; type: in vivo, human
Text: as §1
(§2) Twelve of the 13 patients accrued to the study were evaluable for response. […] The mean self-reported medication compliance of the intended doses was 86% (range 50-100). The median number of VOC during the study period decreased from the expected 2.25 (range 1-6.5) per 6 months to 1 per 6 months (range 0-4) (p=0.003) (FIG. 8). […] Their self-reported medication compliance was 100%. The median decrease in days needing IOA over the six-month study-period was 9 (range 1-55), and the median % reduction was 82 (range 20-100) (p=0.008) (FIG. 9). Total number of days needing IOA was reduced from the expected 254 in six months to 98 during the study period. […] Reported adverse events: 1 case of self-limiting probable viral gastroenteritis (culture negative, C. diff negative by PCR) and 2 cases of increased thirst. Slight nausea was common in the first week.

patients with SCD [3] = assay: Clinical trial: laboratory analyses, tolerability and adverse events; type: in vivo, human
Text: as §1, §2

patients with SCD [4] = assay: Quality of Life survey using the FANTLC questionnaire; type: in vivo, human
Text: Four aspects of QoL issues were examined: Physical well-being, Social well-being, Emotional well-being, and Functional well-being. The scores for response for each of the question were on a scale of 0-4 (0=not at all; 4=very much). As a group, the median score for response to the question “I have pain” decreased from 3.5 to 2 (p=0.08). When the two patients who reported only slight pain before the study (score of 0 or 1) were excluded from the analysis, the median score decreased from 4 to 3 (p=0.04). Changes in the functional well-being of the subjects was examined. […] However, when three subjects were excluded who reported excellent functional well-being even before the study (scores of 3 o 4 for all 7 questions) from the analysis, there was an improvement in the functional well-being of the 9 patients, with the median composite score increased from 14 to 16 (p=0.06).

Clostridium difficile = conditions: cited from earlier work

Which “median CANs after rifaximin therapy” value ([1]; SCD patients, 550 mg twice a day, after 2-4 weeks, range 2.63-20.25, pre-treatment median 12.65% [range 6.07-40.05], two-tailed p=0.0036) does the source give for CO[C@H]1/C=C/O[C@@]2(C)Oc3c(C)c(O)c4c(O)c(c5c(nc6cc(C)ccn65)c4c3C2=O)NC(=O)/C(C)=C\C=C\[C@H](C)[C@H](O)[C@@H](C)[C@@H](O)[C@@H](C)[C@H](OC(C)=O)[C@@H]1C [rifaximin] here?
The value was 4.55%.

What about the “change in CANs after being started on rifaximin” value ([1]; all twelve patients, after 2-4 weeks of rifaximin) of the same molecule?
The value was “marked reduction; also recorded: dramatic reduction”.

And the “CANs at the three-month time-point” value ([1]; two patients whose CANs were analyzed)?
The value was “continued to decrease”.

And the “change in serum CD62L” value (serum CD62L)?
Its value is “drop and significant drop”.

And the “change in serum iFABP” value (serum iFABP)?
The value was “dropped significantly”.

What about the “change in serum LPS levels” value (serum LPS) of the same molecule?
The value was “dropped significantly”.

And the “change in urinary 3-IS” value (urinary 3-IS)?
The value was “drops and drop”.

What about the “abundance of Akkermansia in stool” value (intestinal microbiome) of the same molecule?
Its value is “trend towards increased abundance”.

And the “abundance of Bacteroides in stool” value (intestinal microbiome)?
Its value is “increase in the abundance”.

And the “abundance of Escherichia-Shigella in stool” value (intestinal microbiome)?
Its value is “trend towards increased abundance”.

What about the “median number of VOC during the study period” value (patients with SCD [2]; 12 patients, six months of rifaximin, range 0-4, expected 2.25 (range 1-6.5) per 6 months, p=0.003) of the same molecule?
The value was 1 per 6 months.

What about the “total number of days needing IOA during the study period” value (patients with SCD [2]; expected 254 in six months) of the same molecule?
The value was 98 days.

And the “response of the one patient whose VOC was predominantly priapism” value (patients with SCD [2]; self-reported medication compliance 100%)?
Its value is “did not respond”.

What about the “median decrease in days needing IOA” value (patients with SCD [2]; six-month study period vs expected, range 1-55) of the same molecule?
Its value is 9 days.

What about the “median % reduction in days needing IOA” value (patients with SCD [2]; six-month study period vs expected, range 20-100, p=0.008) of the same molecule?
Its value is 82%.

And the “adverse event: increased thirst” value (patients with SCD [3]; both, human, in vivo, 6 months)?
Its value is 2 cases.

What about the “adverse event: self-limiting probable viral gastroenteritis” value (patients with SCD [3]; culture negative, C. diff negative by PCR, 12 patients) of the same molecule?
The value was 1 case.

What about the “adverse event: slight nausea” value (patients with SCD [3]; human, in vivo) of the same molecule?
Its value is “common”.

What about the change in bilirubin (patients with SCD [3]; human, in vivo) of the same molecule?
Its change in bilirubin is “did not show any significant change”.

And the change in haptoglobin (patients with SCD [3]; human, in vivo)?
Its change in haptoglobin is “did not show any significant change”.

What about the change in hemoglobin (patients with SCD [3]; human, in vivo) of the same molecule?
Its change in hemoglobin is “did not show any significant change”.

What about the “change in serum lactate dehydrogenase” value (patients with SCD [3]; human, in vivo) of the same molecule?
The value was “did not show any significant change”.

What about the “change in white cell counts” value (patients with SCD [3]; human, in vivo) of the same molecule?
Its value is “did not show any significant change”.

And the “median composite score of functional well-being” value (patients with SCD [4]; 9 patients, three with excellent baseline excluded, before 14, p=0.06)?
Its value is 16.

And the “median score to the question "I am enjoying the things I usually do for fun"” value (patients with SCD [4]; after three months of rifaximin, before 1, p=0.048)?
Its value is 2.5.

And the “median score to the question "I am able to enjoy life"” value (patients with SCD [4]; after three months of rifaximin, before 2, p=0.026)?
The value was 2.5.

What about the “functional well-being, as a group” value (patients with SCD [4]; following rifaximin) of the same molecule?
The value was “not any significant difference”.

And the “emotional and social well-being” value (patients with SCD [4]; following rifaximin therapy)?
Its value is “No significant change”.

And the “median score for response to the question "I have pain"” value (patients with SCD [4]; scale 0-4, as a group, before rifaximin 3.5, p=0.08)?
Its value is 2.

And the “median score "I have pain", two patients with only slight pain excluded” value (patients with SCD [4]; scale 0-4, before rifaximin 4, p=0.04)?
The value was 3.

What about the “activity against Clostridium difficile” value (Clostridium difficile) of the same molecule?
The value was “has activities against Clostridium difficile”.
